How the values were obtained:
[1] = biological target: T1, Maxi-K channel (alpha and beta1 subunits) (Homo sapiens, UniProt Q12791); test: FRET (VIPR) membrane potential assay in HEK-293 cells transfected with alpha and beta1 subunits of the maxi-K channel; format: cell-based
T1 construct: expressed in transfected cells
Experimental: The identification of inhibitors of the Maxi-K channel is based on the ability of expressed Maxi-K channels to set cellular resting potential after transfection of both alpha and beta1 subunits of the channel in HEK-293 cells and after being incubated with potassium channel blockers that selectively eliminate the endogenous potassium conductances of HEK-293 cells. In the absence of Maxi-K channel inhibitors, the transfected HEK-293 cells display a hyperpolarized membrane potential, negative inside, close to EK (−80 mV) which is a consequence of the activity of Maxi-K channels. Blockade of the Maxi-K channel by incubation with Maxi-K channel blockers will cause cell depolarization. Changes in membrane potential can be determined with voltage-sensitive fluorescence resonance energy transfer (FRET) dye pairs that use two components, a donor coumarin (CC2DMPE) and an acceptor oxanol (DiSBAC2(3)).
Oxanol is a lipophilic anion and distributes across the membrane according to membrane potential. Under normal conditions, when the inside of the cell is negative with respect to the outside, oxanol is accumulated at the outer leaflet of the membrane and excitation of coumarin will cause FRET to occur. Conditions that lead to membrane depolarization will cause the oxanol to redistribute to the inside of the cell, and, as a consequence, a decrease in FRET. […]

[2] = test system: Normotensive Dutch Belted rabbits; test: Intraocular pressure (IOP) measurements in rabbits; format: in vivo, rabbit; details: for reduction of IOP: 25 μl, normal Dutch Belted rabbits; for ocular hypotensive response (significance): all doses (0.5, 0.1 and 0.01%); for ocular hypotensive response (significance) / contralateral effect on IOP (fellow eye): topical, Dutch Belted rabbits; for contralateral effect on IOP (fellow eye): all doses tested (0.5, 0.1 and 0.01%)
Experimental: Intraocular Pressure (IOP) Measurements in Rabbits
Normotensive Dutch Belted rabbits (2.3 kg) of either sex were maintained on a 12-hour light/dark cycle during these experiments. Intraocular pressure (IOP) was measured using a calibrated pneumatonometer (Alcon Applanation Pneumatonograph), and results expressed in millimeters of mercury (mmHg). Before tonometry, one drop of 0.05% proparacaine was applied to the corneas to minimize any discomfort to the animal. Two base-line (control) readings were taken at (−0.5 and 0 hr.) after which Compounds I, Ia or II were administered topically (unilaterally applied into the conjunctival sac) in a 25 μl volume with the contralateral (fellow) eye receiving an equal volume of vehicle. A masked design was utilized, where the person involved in drug administration and measurement of IOP had no knowledge of the solutions' contents. Subsequently, IOP measurements were taken at 0.5, 1, 2, 3, 4, 5 and 6 hr after topical applications of drug. At the end of each day's measurements, stability of the tonometer was determined using the calibrator/verifier.

[3] = biological target: T2, high-conductance calcium-activated potassium (Maxi-K) channels (Homo sapiens, UniProt Q12791); test: Patch clamp recordings of Maxi-K channel currents in excised inside-out membrane patches; format: cell-based; details: 1 nM concentration applied to internal side of excised inside-out patch; held at -80 mV, steps to +50 mV
T2 construct: expressed in transfected cells; host or cells: CHO cells (α alone) or HEK293 cells (α and β1)
T2 sequence (Q12791 whole entry): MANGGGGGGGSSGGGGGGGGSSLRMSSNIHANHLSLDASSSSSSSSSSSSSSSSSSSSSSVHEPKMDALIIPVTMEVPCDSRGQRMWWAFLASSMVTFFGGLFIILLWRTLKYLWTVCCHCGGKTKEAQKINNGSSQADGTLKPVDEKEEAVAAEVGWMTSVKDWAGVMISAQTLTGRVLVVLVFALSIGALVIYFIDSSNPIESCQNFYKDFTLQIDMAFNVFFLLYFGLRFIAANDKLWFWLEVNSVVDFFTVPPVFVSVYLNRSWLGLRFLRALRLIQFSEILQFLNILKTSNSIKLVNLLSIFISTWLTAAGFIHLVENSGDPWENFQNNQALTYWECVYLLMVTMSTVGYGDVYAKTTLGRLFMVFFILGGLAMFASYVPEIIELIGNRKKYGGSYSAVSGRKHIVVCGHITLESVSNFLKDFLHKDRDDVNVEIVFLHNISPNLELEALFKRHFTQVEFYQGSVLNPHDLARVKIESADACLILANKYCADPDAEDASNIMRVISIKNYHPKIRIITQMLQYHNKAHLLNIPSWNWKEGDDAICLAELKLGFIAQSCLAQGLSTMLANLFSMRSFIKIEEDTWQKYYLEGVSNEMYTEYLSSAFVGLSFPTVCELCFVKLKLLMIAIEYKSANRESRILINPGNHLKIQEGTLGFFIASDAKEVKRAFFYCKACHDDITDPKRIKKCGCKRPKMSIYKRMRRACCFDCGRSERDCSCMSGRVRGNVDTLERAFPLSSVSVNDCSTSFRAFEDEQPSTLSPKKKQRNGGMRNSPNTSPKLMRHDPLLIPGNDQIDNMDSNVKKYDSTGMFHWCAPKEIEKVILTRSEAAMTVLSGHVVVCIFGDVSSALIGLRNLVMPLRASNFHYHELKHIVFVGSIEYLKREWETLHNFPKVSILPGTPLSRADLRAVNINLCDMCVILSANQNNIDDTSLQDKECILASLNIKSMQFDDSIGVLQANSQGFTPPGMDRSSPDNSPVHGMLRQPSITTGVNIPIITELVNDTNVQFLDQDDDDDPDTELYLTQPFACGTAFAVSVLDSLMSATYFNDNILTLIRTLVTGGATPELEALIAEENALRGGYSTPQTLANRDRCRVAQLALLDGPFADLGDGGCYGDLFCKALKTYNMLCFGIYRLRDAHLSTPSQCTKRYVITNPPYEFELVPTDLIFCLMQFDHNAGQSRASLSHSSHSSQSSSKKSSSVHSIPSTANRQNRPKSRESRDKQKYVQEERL
Source text: Electrophysiological Assays of Compound Effects on High-conductance Calcium-activated Potassium Channels
Patch clamp recordings of currents flowing through high-conductance calcium-activated potassium (Maxi-K) channels were made from membrane patches excised from CHO cells constitutively expressing the α-subunit of the Maxi-K channel or HEK293 cells constitutively expressing both α- and β1-subunits using conventional techniques (Hamill et al., 1981, Pflügers Archiv. 391, 85-100) at room temperature. Glass capillary tubing (Garner #7052) was pulled in two stages to yield micropipettes with tip diameters of approximately 1-2 microns. Pipettes were typically filled with solutions containing (mM): 150 KCl, 10 Hepes (4-(2-hydroxyethyl)-1-piperazine […]), 1 Mg, 0.01 Ca, and adjusted to pH 7.20 with 3.7 mM KOH. After forming a high resistance (>10^9 ohms) seal between the plasma membrane and the pipette, the pipette was withdrawn from the cell, forming an excised inside-out membrane patch. […]
The effects of the compounds of the present invention on Maxi-K channels were examined in excised inside-out membrane patches. […] The fraction of channels blocked in each experiment was calculated from the reduction in peak current caused by application of the specified compound to the internal side of the membrane patch. […]

[4] = 0.01% unilateral topical application
[5] = 0.1% unilateral topical application
[6] = 0.5% unilateral topical application

T1 sequence (Q12791 whole entry): as above
T1 sequence (Q16558 whole entry partner): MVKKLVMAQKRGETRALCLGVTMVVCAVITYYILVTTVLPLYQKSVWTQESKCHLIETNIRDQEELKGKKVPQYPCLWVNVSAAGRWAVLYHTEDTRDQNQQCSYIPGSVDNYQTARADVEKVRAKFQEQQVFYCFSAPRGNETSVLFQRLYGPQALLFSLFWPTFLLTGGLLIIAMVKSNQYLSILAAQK

SMILES | IC50 [1] [nM] | reduction of IOP [2, 4] [mmHg] | reduction of IOP [2, 5] [mmHg] | reduction of IOP [2, 6] [mmHg] | ocular hypotensive response (significance) [2] | contralateral effect on IOP (fellow eye) [2] | decrease in Maxi-K channel currents [3] [%]
CC(C)[C@@H](C(=O)O[C@H]1C[C@H]2Cc3c([nH]c4ccccc34)[C@]2(C)[C@@]2(C)CC[C@@]34O[C@@H](C(=O)C=C3[C@]12O)C(C)(C)O4)N(C)C [Ib] | ≤ 100 | 3 | 3.3 | 3.7 | significant | significant contralateral effect | –
CC(C)C[C@@H](C(=O)O[C@H]1C[C@H]2Cc3c([nH]c4ccccc34)[C@]2(C)[C@@]2(C)CC[C@@]34O[C@@H](C(=O)C=C3[C@]12O)C(C)(C)O4)N(C)C [Compound Ia] | ≤ 100 | 3 | 3.3 | 3.7 | significant | significant contralateral effect | 88

— patent publication US7294646B2, “Maxi-k channel blockers, methods of use and process for making the same” (Merck & Co. Inc., priority 2002, dated 2007)
